Reference: ChEMBL document CHEMBL3132769, “Fragment growing to retain or alter the selectivity of anchored kinase hinge-binding fragments” (Medchemcomm, 2014)

What was measured:
[1] = target: Hepatocyte growth factor receptor (Homo sapiens) (UniProt P08581); assay: Inhibition of human MET cytoplasmic domain expressed in baculovirus assessed as substrate phosphorylation using fluorescence-labelled peptides as substrate at 0.06 uM after 90 mins by microfluidic peptide phosphorylation assay
[2] = target: Hepatocyte growth factor receptor (Homo sapiens) (UniProt P08581); assay: Inhibition of human MET cytoplasmic domain expressed in baculovirus assessed as substrate phosphorylation using fluorescence-labelled peptides as substrate at 70 uM after 90 mins by microfluidic peptide phosphorylation assay
[3] = target: Fibroblast growth factor receptor 1 (Homo sapiens) (UniProt P11362); assay: Inhibition of human FGFR1 catalytic domain expressed in baculovirus assessed as substrate phosphorylation using fluorescence-labelled peptides as substrate at 420 uM after 90 mins by microfluidic peptide phosphorylation assay
[4] = target: T1, Inhibitor of nuclear factor kappa-B kinase subunit beta (Homo sapiens) (UniProt O14920); assay: Inhibition of human full length IKK beta expressed in baculovirus assessed as substrate phosphorylation using fluorescence-labelled peptides as substrate at 95 uM after 90 mins by microfluidic peptide phosphorylation assay
T1 sequence (whole entry): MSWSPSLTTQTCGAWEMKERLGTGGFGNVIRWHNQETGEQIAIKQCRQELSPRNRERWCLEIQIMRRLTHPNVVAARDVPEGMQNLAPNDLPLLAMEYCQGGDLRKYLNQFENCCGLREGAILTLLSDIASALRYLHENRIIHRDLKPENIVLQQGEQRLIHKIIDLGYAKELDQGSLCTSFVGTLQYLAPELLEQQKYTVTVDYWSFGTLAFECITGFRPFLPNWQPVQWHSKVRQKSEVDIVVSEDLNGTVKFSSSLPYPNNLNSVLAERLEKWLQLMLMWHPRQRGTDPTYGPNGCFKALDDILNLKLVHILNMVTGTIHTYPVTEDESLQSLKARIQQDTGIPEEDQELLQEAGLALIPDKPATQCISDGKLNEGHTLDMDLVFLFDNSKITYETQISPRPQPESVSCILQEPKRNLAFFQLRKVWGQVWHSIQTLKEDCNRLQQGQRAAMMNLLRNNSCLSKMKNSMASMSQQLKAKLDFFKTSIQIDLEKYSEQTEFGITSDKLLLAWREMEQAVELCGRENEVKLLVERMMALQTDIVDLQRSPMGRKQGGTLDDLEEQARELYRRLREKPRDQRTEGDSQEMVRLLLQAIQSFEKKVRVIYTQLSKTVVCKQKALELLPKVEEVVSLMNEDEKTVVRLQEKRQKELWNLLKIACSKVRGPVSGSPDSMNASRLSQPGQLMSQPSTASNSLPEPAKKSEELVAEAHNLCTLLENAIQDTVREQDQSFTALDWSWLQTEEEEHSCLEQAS

[5] = target: T2, Protein kinase C epsilon type (Homo sapiens) (UniProt Q02156); assay: Inhibition of human truncated PKC epsilon expressed in baculovirus assessed as substrate phosphorylation using fluorescence-labelled peptides as substrate at 95 uM after 90 mins by microfluidic peptide phosphorylation assay
T2 sequence (whole entry): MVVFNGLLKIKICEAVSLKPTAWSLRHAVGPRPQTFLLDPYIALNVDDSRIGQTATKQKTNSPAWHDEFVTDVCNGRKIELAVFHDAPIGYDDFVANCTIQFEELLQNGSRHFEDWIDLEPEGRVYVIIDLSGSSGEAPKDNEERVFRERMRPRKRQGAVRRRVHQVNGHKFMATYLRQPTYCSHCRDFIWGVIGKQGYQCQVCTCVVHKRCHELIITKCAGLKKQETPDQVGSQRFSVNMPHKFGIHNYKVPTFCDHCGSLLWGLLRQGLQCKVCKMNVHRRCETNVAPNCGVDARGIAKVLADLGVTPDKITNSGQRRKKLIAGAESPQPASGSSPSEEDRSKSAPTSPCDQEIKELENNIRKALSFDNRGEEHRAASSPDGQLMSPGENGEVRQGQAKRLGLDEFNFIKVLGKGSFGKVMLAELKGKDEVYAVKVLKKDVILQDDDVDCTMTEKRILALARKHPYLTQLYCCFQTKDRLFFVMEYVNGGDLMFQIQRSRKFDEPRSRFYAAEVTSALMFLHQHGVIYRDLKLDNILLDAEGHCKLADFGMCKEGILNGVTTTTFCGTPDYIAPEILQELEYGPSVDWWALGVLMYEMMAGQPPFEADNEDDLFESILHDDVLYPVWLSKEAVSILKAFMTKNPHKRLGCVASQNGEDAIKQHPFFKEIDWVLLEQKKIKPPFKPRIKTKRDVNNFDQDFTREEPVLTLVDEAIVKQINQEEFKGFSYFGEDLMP

[6] = tested on: Fibroblast growth factor receptor 2 (Homo sapiens), P21802 [N549H]; assay: Inhibition of human FGFR2 N549H mutant catalytic domain expressed in baculovirus assessed as substrate phosphorylation using fluorescence-labelled peptides as substrate at 9 uM after 90 mins by microfluidic peptide phosphorylation assay
[7] = target: T3, cGMP-dependent protein kinase 1 (Homo sapiens) (UniProt Q13976); assay: Inhibition of human full length PKG-1a expressed in baculovirus assessed as substrate phosphorylation using fluorescence-labelled peptides as substrate at 1000 uM after 90 mins by microfluidic peptide phosphorylation assay
T3 sequence (whole entry): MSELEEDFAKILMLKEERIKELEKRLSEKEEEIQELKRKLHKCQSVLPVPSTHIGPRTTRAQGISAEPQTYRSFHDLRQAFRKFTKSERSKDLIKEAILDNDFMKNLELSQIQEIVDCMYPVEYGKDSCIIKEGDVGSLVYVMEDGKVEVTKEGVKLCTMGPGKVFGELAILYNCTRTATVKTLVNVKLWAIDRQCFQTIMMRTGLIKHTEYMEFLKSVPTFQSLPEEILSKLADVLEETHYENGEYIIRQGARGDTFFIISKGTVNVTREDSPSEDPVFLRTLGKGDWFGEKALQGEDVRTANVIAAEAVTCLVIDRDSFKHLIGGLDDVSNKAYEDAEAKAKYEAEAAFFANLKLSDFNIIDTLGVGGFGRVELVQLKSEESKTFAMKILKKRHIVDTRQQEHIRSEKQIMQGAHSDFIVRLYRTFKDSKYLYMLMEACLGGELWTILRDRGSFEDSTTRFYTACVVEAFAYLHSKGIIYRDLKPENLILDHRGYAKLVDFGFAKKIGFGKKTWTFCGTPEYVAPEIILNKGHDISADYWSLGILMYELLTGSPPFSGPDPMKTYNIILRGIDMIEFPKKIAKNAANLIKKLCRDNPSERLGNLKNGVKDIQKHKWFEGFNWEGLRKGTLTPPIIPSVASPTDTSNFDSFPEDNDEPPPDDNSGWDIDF

[8] = target: Tyrosine-protein kinase ABL1 (Homo sapiens) (UniProt P00519); assay: Inhibition of human full-length ABL expressed in baculovirus assessed as substrate phosphorylation using fluorescence-labelled peptides as substrate at 1000 uM after 90 mins by microfluidic peptide phosphorylation assay
[9] = target: MAP/microtubule affinity-regulating kinase 3 (Homo sapiens) (UniProt P27448); assay: Inhibition of human full length c-TAK1 expressed in Escherichia coli cell assessed as substrate phosphorylation using fluorescence-labelled peptides as substrate at 2 uM after 90 mins by microfluidic peptide phosphorylation assay
Chain of MAP/microtubule affinity-regulating kinase 3 (Homo sapiens) (P27448 whole entry, looked up): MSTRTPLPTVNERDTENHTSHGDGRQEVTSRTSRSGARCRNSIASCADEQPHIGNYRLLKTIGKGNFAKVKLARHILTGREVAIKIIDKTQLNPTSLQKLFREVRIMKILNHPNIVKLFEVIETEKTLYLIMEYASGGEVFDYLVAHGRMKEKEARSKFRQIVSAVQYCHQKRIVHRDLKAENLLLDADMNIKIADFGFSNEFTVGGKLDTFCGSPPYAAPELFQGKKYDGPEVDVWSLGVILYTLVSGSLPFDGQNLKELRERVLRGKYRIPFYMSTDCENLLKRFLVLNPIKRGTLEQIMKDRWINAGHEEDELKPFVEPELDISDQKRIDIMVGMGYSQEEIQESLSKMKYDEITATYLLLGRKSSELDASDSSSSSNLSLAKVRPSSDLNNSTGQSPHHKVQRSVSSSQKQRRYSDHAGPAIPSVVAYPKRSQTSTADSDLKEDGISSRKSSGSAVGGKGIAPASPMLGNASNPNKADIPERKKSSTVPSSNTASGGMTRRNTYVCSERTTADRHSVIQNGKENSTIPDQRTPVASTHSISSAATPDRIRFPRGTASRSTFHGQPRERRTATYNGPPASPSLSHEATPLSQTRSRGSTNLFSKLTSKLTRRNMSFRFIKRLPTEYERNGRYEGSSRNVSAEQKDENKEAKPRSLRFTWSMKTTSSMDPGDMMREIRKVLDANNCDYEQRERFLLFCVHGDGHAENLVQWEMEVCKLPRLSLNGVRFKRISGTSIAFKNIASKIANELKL

Chain of Hepatocyte growth factor receptor (Homo sapiens) (P08581 whole entry, the tested form may be a part): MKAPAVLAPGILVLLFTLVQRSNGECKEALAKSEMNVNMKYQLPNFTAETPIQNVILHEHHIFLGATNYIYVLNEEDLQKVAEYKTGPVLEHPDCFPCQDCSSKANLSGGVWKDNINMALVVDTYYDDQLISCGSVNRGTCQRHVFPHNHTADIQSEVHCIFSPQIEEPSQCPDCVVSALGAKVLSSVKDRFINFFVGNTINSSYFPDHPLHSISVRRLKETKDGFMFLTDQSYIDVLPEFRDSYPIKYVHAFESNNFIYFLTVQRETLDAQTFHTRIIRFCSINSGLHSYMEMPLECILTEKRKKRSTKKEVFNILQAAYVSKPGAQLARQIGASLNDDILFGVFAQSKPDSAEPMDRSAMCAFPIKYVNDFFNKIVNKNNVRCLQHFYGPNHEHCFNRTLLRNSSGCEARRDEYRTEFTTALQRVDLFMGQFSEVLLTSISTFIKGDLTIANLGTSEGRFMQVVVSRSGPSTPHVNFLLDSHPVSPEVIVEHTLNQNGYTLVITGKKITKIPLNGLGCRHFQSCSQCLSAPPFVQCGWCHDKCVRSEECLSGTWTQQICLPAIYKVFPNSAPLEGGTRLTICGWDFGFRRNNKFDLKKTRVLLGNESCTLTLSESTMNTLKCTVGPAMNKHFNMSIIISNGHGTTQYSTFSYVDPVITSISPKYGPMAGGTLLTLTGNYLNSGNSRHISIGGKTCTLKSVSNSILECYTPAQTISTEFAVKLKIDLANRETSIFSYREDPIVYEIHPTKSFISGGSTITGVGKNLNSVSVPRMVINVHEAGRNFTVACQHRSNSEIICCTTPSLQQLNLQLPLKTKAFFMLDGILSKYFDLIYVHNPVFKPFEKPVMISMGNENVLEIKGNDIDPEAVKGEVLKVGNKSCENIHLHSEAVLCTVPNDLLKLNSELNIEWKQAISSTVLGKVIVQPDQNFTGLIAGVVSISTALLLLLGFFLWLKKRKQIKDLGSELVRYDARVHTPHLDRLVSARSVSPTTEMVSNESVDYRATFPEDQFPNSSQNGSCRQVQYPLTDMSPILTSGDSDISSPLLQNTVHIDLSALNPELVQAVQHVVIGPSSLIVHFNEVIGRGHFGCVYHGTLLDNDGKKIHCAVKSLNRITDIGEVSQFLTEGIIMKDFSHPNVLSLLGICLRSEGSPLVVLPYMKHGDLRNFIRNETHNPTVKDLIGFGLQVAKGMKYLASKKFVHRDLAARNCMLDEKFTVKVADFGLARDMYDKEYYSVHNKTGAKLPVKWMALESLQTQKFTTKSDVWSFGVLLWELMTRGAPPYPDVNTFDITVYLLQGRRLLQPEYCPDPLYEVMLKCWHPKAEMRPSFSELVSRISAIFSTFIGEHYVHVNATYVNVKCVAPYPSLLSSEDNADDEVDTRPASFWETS
Chain of Fibroblast growth factor receptor 1 (Homo sapiens) (P11362 22-822 limits assumed): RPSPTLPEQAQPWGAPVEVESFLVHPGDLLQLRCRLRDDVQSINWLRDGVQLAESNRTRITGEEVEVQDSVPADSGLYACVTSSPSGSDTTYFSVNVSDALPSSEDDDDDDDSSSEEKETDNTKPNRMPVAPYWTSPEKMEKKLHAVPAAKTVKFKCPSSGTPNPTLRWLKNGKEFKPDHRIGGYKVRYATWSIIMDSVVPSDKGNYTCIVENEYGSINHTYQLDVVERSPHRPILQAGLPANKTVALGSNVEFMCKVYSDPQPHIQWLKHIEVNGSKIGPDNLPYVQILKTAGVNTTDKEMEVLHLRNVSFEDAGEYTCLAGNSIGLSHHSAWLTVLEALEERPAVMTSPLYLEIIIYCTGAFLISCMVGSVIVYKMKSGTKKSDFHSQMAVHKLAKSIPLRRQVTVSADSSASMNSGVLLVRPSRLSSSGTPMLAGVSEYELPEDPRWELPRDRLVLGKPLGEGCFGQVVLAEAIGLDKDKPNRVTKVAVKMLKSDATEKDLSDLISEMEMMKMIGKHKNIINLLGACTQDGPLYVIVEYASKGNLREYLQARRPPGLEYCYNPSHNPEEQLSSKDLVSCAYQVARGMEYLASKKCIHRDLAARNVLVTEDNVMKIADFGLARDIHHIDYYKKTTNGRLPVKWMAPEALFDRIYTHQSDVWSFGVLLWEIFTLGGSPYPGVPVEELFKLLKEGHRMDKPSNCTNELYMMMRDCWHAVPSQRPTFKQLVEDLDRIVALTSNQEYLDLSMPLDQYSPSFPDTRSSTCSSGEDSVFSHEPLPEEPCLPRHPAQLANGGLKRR
Chain of Fibroblast growth factor receptor 2 (Homo sapiens), P21802 [N549H] (P21802 whole entry N549H, the tested form may be a part): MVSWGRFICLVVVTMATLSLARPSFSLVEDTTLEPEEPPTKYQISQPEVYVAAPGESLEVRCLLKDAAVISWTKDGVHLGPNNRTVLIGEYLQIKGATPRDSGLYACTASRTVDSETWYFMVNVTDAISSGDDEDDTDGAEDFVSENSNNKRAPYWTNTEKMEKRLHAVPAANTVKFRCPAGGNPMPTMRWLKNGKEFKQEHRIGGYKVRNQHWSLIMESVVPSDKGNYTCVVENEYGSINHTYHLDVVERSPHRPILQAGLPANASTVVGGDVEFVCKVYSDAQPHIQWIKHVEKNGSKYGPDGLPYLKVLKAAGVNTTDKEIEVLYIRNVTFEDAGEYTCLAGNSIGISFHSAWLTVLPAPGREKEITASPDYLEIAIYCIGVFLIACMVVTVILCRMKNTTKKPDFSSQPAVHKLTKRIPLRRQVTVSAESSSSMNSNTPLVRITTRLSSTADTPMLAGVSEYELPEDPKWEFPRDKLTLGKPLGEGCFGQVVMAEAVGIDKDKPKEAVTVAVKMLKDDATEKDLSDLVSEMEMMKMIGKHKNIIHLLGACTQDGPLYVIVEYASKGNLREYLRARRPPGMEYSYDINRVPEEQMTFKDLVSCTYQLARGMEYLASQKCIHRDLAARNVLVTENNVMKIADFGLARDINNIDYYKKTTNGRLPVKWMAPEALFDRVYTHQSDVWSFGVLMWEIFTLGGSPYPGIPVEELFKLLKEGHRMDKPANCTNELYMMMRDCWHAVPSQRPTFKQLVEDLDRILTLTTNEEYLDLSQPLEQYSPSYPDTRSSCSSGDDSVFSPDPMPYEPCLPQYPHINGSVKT
Chain of Tyrosine-protein kinase ABL1 (Homo sapiens) (P00519 whole entry): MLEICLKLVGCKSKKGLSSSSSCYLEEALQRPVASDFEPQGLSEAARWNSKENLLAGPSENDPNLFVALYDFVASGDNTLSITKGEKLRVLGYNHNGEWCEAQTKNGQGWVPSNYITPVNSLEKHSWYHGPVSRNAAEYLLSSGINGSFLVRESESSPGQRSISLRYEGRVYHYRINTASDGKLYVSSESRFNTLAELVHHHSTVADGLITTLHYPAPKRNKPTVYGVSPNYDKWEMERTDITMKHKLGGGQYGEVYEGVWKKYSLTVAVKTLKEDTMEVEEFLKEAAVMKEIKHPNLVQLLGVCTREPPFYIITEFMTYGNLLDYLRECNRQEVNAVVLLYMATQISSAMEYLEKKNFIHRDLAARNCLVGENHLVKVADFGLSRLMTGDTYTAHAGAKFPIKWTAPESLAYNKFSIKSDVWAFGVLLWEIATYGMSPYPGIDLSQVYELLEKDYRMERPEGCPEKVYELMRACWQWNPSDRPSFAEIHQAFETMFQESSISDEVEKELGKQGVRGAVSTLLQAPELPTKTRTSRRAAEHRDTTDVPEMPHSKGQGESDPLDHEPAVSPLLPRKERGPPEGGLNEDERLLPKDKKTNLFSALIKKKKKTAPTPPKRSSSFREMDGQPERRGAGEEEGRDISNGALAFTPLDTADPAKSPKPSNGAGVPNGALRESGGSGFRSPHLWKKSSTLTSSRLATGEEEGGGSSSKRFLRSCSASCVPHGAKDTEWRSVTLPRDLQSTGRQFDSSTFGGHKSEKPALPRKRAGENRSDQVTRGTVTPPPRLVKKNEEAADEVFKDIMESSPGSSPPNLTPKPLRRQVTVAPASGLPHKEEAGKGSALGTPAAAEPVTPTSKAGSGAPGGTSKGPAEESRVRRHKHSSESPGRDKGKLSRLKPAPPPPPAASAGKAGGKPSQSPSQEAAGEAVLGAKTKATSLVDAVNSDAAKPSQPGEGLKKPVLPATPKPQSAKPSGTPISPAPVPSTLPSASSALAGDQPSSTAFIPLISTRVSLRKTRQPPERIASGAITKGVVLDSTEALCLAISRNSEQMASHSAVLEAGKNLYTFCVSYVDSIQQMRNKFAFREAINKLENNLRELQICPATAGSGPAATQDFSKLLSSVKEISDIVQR

## NC1(Cc2ccc(Cl)cc2)CCN(c2ncnc3[nH]ccc23)CC1
[1]
  inhibition: 0%

## CNCc1ccc(-c2ncnc3[nH]cnc23)cc1
[2]
  inhibition: 0%

## c1nc(N2CCOCC2)c2nc[nH]c2n1
[3]
  inhibition: 97%

## NCCc1ccc(-c2ncnc3[nH]cnc23)cc1
[4]
  inhibition: 91%
[5]
  inhibition: 49%

## NCC1CN(c2ncnc3[nH]c4cnccc4c23)CCO1 (centres undefined)
[6]
  inhibition: 47.5%

## c1cnc2[nH]ccc2c1
[7]
  inhibition: 90.5%
[8]
  inhibition: 42%

## NC1CCN(c2ncnc3[nH]ccc23)CC1
[9]
  inhibition: 3%
